{"source": "patent US8173360B2", "about": "“Cell death inhibitor” (Takeda Pharmaceutical Company Limited, priority 2002, dated 2012)", "key": {"[1]": {"biological_target": "T1, rat MIF (Rattus norvegicus, UniProt P30904)", "T1 construct": "the region encoding MIF was amplified from the complementary DNA (cDNA) library of rat and mouse brains; made in house; host or cells: Escherichia coli BL21 (DE3)", "test": "Binding to immobilized rat MIF by surface plasmon resonance (BIACORE 3000)", "details": "10 μM in PBS, rat MIF immobilized on sensor chip CM5", "procedure": "The binding of rat MIF obtained in REFERENCE EXAMPLE 6 to Compound 1 obtained in REFERENCE EXAMPLE 1 was analyzed using BIACORE 3000 (manufactured by Biacore).\nRat MIF was immobilized on a sensor chip CM5 (manufactured by Biacore). Then, phosphate buffered saline (PBS) containing 10 μM of Compound 1 was flown over the sensor chip and changes in the surface plasmon resonance signal were monitored as the binding of the compound to rat MIF.\nRat MIF obtained in REFERENCE EXAMPLE 6 was immobilized on a sensor chip CM5 (manufactured by Biacore Co., Ltd.). Thereafter, phosphate buffered saline (PBS) containing 10 μM of 3-[2-(4-oxo-4H-1,3-benzothiazin-2-yl)-4-pyridyl]propionic acid (the compound of EXAMPLE 308 described in WO 03/020719) was flown over the sensor chip and changes in surface plasmon resonance signal were monitored as the binding of the compound to rat MIF."}, "[2]": {"test_system": "primary cardiomyocytes derived from rat neonates", "test": "Inhibition of serum depletion-induced myocardial cell death (WST-8 viable cell count)", "format": "cell-based", "text": "Neonates (within one day after birth) were obtained from pregnant Wistar rats purchased from Charles River Japan, Inc. and anesthetized with ether. After sterilization with 70% ethanol, the heart was removed with forceps. After washing with phosphate buffered saline (manufactured by Takara Co., Ltd., T900), the heart removed was minced with surgical scissors. The pieces of tissue were washed 4 or 5 times with phosphate buffered saline to remove most of non-cardiomyocytes derived from blood. To the pieces of tissue corresponding to 10 neonates, 5 ml of an enzyme solution [which is a solution of trypsin (1.25 mg) (manufactured by Difco) and collagenase (0.25 mg) (manufactured by Sigma) in phosphate buffer (1 ml)] was added. The mixture was stirred for 15 minutes with a stirrer while maintaining at 37° C. After 2.5 ml of the enzyme solution was replenished, the mixture was stirred for further 15 minutes, and this procedure was repeated twice. Subsequently, Medium 199 (manufactured by Gibco) containing 10% fetal cow serum (manufactured Biowicker, Inc.) was added to the mixture in a half volume of the enzyme solution to terminate the enzymatic reaction. After filtering through a cell strainer (manufactured by Falcon), the mixture was centrifuged at 400×g for 5 minutes to collect the cells.\nThe cells were then recovered, filtered through a cell strainer and centrifuged at 400×g for 5 minutes to collect primary cardiomyocytes derived from rat neonates.\nNext, the primary cardiomyocytes derived from rat neonates (corresponding 10 neonates) were suspended in 2 ml of a hypotonic solution [solution obtained by dissolving NH4Cl (8.29 g), KHCO3 (1.0 g) and EDTA/2Na (ethylenediaminetetraacetic acid disodium; manufactured by Dojin Chemical Laboratory) (37 mg) in water (1 L)]. The suspension was allowed to stand for 3 minutes to disrupt erythrocytes. To the suspension 10 ml of Medium 199 containing 10% fetal cow serum was added, and the mixture was centrifuged at 400×g for 5 minutes to collect the primary cardiomyocytes derived from rat neonates. […] An aliquot of the cardiomyocytes suspension obtained was taken out and 0.3% trypan blue was added thereto. The mixture was gently stirred and the count of cardiomyocytes was counted with a hemocytometer.\nIncubation was continued for further 4 days to induce cell death. […]\nThe mean value (±SD) in the minimum effective concentration of Compound 1 required for inhibiting the cell death was 0.015±0.011 μM. The concentration of Compound 1 required for increasing the mean cell count by 30% when compared to the cell count without the addition of Compound 1 was determined to be the minimum effective concentration. […]"}, "[3]": {"test_system": "primary cardiomyocytes derived from rat neonates", "test": "Inhibitory activity against myocardial cell death induced by doxorubicin", "format": "cell-based", "details": "doxorubicin 200 μM, 18 hours; sample added 3 hours before", "procedure": "Medium 199 and a sample to be tested were added thereto, followed by incubation for 3 hours. After the incubation, doxorubicin (DOX: final concentration of 200 μM) was added to the mixture, which was incubated for further 18 hours to induce cell death. Subsequently, fetal cow serum was added thereto to reach 10%. […] Thus, the myocardial cell death inhibitory activity was examined."}, "[4]": {"test_system": "primary cardiomyocytes derived from rat neonates", "details": "simvastatin 0.3 μM or atorvastatin 1 μM, 3 days", "procedure": "The primary cardiomyocytes derived from rat neonates obtained in EXPERIMENTAL EXAMPLE 2 were suspended in Medium 199 containing 10% fetal cow serum in 6×10^5 cells/ml, and the suspension was seeded on a 96-well plate in 0.1 mlwell, followed by incubation for a day in a CO2 incubator set at 37° C. and 5% CO2. After stirring with a micromixer (manufactured by Taiyo Kagaku Kogyo Co., Ltd.), the medium was replaced 3 times with serum-free Medium 199 to remove serum. […] Thereafter, fetal cow serum was added thereto to become 10%. After further incubation in a CO2 incubator set at 37° C. and 5% CO2 for about 17 hours, the viable cell count was determined using a cell count assay kit (manufactured by Dojin Chemical Laboratory) in which WST-8 was used as a chromogen, thereby to examine the inhibitory activity of myocardial cell death induced by the statin. The experiment described above was carried out independently in 3 runs. The viable cell count in each of the experimental groups was named the mean value (±SD) of the viable cell counts in each experimental group, when the viable cell count in the group with no statin added was made 1."}, "[5]": {"test_system": "Normal human umbilical vein endothelial cells", "test": "Inhibitory activity against serum depletion-induced cell death of vascular smooth muscle", "format": "cell-based", "details": "serum-free MCDB131 medium, 3 days, WST-8"}, "[6]": {"test_system": "genes under control of Antioxidant response element (ARE)", "test": "Gene expression analysis by DNA chip", "format": "cell-based, rat", "details": "for Increasing Rate of Expression: 21 hours, without compound = 1", "procedure": "After gently stiffing, the plate was washed 3 times with Medium 199 medium to remove serum. […] The medium was then removed and total RNA was recovered using RNeasy Mini Kit (manufactured by QIAGEN). Using the total RNA, exhaustive analysis of gene expression was performed on GeneChip arrays for expression analysis (Rat Genome U34A Arrays: manufactured by AFFYMETRIX). The increasing rate of expression of each gene was expressed in terms of the expression level with the addition of the compound, when the expression level without addition of any compound was made 1."}}}
{"smiles": "O=c1nc(-c2ccccn2)sc2ccccc12", "note": "[Compound 1, 2-(2-Pyridyl)-4H-1,3-benzothiazin-4-one]", "values": [{"measurement": "binding of the compound to rat MIF (changes in surface plasmon resonance signal)", "setting": "[1]", "result": "binds to MIF"}, {"measurement": "minimum effective concentration required for inhibiting the cell death", "setting": "[2]; concentration increasing mean cell count by 30% vs no compound, serum-free 4 days, mean ±SD, 3 runs", "result": "0.015 ± 0.011", "unit": "µM"}, {"measurement": "myocardial cell death inhibitory activity", "setting": "[2]; serum depletion, 4 days, WST-8 viable cell count", "result": "exhibit the activity of inhibiting myocardial cell death"}, {"measurement": "inhibition of myocardial cell death induced by doxorubicin", "setting": "[3]", "result": "exhibits the activity of inhibiting myocardial cell death induced by doxorubicin"}, {"measurement": "inhibition of myocardial cell death induced by statin", "setting": "[4]", "result": "exhibits the activity of inhibiting myocardial cell death induced by the HMG-CoA reductase inhibitor"}, {"measurement": "inhibition of cell death induced by serum depletion", "setting": "[5]", "result": "exhibits the activity of inhibiting vascular smooth muscle cell death induced by serum depletion"}, {"measurement": "Increasing Rate of Expression", "setting": "[6]; Bilirunin-specific UDP-glucuronosyltransferase", "result": 5.2}, {"measurement": "Increasing Rate of Expression", "setting": "[6]; Gamma-glutamylcysteine synthetase", "result": 2.4}, {"measurement": "Increasing Rate of Expression", "setting": "[6]; Glutathione S-transferase Yb subunit", "result": 2.5}, {"measurement": "Increasing Rate of Expression", "setting": "[6]; Glutathione S-transferase Yc1 subunit", "result": 2.1}, {"measurement": "Increasing Rate of Expression", "setting": "[6]; Heme oxygenase-1", "result": 2.0}, {"measurement": "Increasing Rate of Expression", "setting": "[6]; Liver glutathione S-transferase Ya subunit", "result": 11.6}, {"measurement": "Increasing Rate of Expression", "setting": "[6]; Liver glutathione S-transferase Yc subunit", "result": 2.3}, {"measurement": "Increasing Rate of Expression", "setting": "[6]; NAD(P)H-menadione oxidereductase", "result": 2.8}, {"measurement": "Increasing Rate of Expression", "setting": "[6]; NAD(P)H: quinone reductase", "result": 9.4}, {"measurement": "Increasing Rate of Expression", "setting": "[6]; UDP-glucuronosyltransferase, exon 1", "result": 5.0}, {"measurement": "expression of the genes under control of Antioxidant response element (ARE)", "setting": "[6]; statement in words", "result": "enhances expression of the genes under control of Antioxidant response element (ARE)"}]}
